Data on 1 molecule can be found in patent US20170333390A1, “PHYTOCHEMICAL COMPOSITIONS INCLUDING SESAMIN FOR ANTI-INFLAMMATORY, ANTI-CYTOKINE STORM, AND OTHER USES” (CHIANG MAI UNIVERSITY, priority 2009, published 2017).

The subject of the test is IL-1 released by LPS induced peripheral blood mononuclear cells (PBMCs). Description: Quantity of IL-1 released by LPS induced PBMCs (ELISA). In kind it is cell-based. As to conditions: LPS 20 ng/ml. As to the method: Experiments were conducted to evaluate the effect of particular phytochemical compositions provided by the present disclosure on quantity of IL-1 released by specified cells found within a body of a living organism. Cells used for the experiment described in this example are LPS induced peripheral blood mononuclear cells (PBMCs). It is understood by a person of ordinary skill in the art that the PBMCs may be substituted for other immune cells found within the body. It is also understood by a person having ordinary skill in the art that other inducing substances or chemicals besides LPS, for example viral antigens, may also be used for inducing the PBMCs.
To conduct the experiments of example two, PBMCs were isolated and prepared using isolation techniques or methods known to a person of ordinary skill in the art. An exemplary method or technique is the differential density gradient centrifugation technique, the steps or process steps of which are known to a person of ordinary skill in the art. In addition, LPS can be obtained from a commercial source, for example Sigma-Aldrich Co.
The PBMCs are cultured in 10% fetal calf serum in RPMI1640 medium. Seven cultures of PBMCs, i.e. culture 1 to culture 7, were prepared. The contents of each of cultures 1 to 7 are as follows: • (i) Culture 1: First control culture. Includes a predetermined volume of PBMCs (1×10^5 PBMCs/culture); • (ii) Culture 2: Second control culture. […]
After a predetermined time period, quantity of IL-1 in each of cultures 1 to 7 was quantified using the ELISA technique (e.g., Biotrak Easy ELISA Aersham). The quantity of IL-1 detected by the ELISA technique in each of cultures 1 to 7 reflects the quantity of IL-1 released by the PBMCs of that culture.
A general note: An ELISA detects its analyte on a solid surface through an enzyme-linked reagent.

Regarding `c1cc2c(cc1[C@H]1OC[C@H]3[C@@H]1CO[C@@H]3c1ccc3c(c1)OCO3)OCO2` [sesamin], the “decrease in quantity of IL-1” value by setting is: (0.1 uM sesamin (culture 3), compared to control culture 1, 24 hours) “approximately 5%”; (0.5 uM sesamin (culture 4), compared to control culture 1, 24 hours) “approximately 5%”; (10 uM sesamin (culture 7), compared to control culture 2, 24 hours) “approximately 35%”.
